Measurements as given in ChEMBL document CHEMBL4052601, “Glycybridins A-K, Bioactive Phenolic Compounds from Glycyrrhiza glabra” (J Nat Prod, 2017).

Experiments:
[1] = system: RAW264.7; test: Antiinflammatory activity against mouse RAW264.7 cells assessed as inhibition of LPS-induced nitric oxide production at 10 uM after 24 hrs by Griess assay relative to control; assay type: functional; conditions: RAW264.7, 24 h
[2] = target: T1, Tyrosine-protein phosphatase non-receptor type 1 (Homo sapiens) (UniProt P18031); conditions: at 10 µM
T1 sequence (whole entry): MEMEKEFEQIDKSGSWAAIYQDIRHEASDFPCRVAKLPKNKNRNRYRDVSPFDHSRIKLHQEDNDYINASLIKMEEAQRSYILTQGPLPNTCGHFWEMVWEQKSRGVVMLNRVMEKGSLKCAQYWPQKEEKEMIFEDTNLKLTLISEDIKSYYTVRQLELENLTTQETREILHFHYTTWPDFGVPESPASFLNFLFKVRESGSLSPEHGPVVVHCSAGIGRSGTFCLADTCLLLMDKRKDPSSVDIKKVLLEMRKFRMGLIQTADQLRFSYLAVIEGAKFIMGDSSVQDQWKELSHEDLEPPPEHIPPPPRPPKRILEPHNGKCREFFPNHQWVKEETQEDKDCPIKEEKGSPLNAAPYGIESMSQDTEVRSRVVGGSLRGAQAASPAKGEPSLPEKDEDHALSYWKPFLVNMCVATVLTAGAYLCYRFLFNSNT
Description: Inhibition of recombinant human PTP1B using pNPP as substrate at 10 uM after 30 mins relative to control

[3] = system: SW480; test: Antiproliferative activity against human SW480 cells at 10 uM after 24 hrs by MTS assay relative to control; assay type: functional; conditions: SW480, 24 h
[4] = system: Homo sapiens; test: Inhibition of LPS-induced NF-kappaB (unknown origin) transactivation expressed in human SW480 cells at 10 uM administered 1 hr after LPS stimulation measured after 6 hrs by luciferase reporter gene assay relative to control; assay type: cell-based
[5] = target: T2, Tyrosinase (Homo sapiens) (UniProt P14679); conditions: at 10 µM;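 further: tyrosinase of unspecified origin acting on L-tyrosine, compound preincubated with enzyme for 15 min before adding substrate, inhibition expressed versus control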
T2 sequence (whole entry): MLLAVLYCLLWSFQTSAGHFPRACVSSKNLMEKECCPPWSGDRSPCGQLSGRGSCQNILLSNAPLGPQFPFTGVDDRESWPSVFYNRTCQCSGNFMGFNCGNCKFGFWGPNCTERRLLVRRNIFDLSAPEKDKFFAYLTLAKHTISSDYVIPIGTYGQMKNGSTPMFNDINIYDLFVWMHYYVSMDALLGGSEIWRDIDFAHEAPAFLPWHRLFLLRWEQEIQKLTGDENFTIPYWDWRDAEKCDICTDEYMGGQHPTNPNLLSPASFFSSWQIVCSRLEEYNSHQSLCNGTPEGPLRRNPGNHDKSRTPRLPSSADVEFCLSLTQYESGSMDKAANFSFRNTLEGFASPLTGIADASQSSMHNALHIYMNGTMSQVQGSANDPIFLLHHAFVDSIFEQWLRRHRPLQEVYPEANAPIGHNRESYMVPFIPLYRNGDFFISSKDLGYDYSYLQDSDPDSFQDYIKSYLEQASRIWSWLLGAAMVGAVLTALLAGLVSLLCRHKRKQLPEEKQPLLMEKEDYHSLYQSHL
Description: Inhibition of tyrosinase (unknown origin) using L-tyrosine as substrate at 10 uM preincubated for 15 mins followed by substrate addition relative to control

[6] = system: A549; test: Antiproliferative activity against human A549 cells at 10 uM after 24 hrs by MTS assay relative to control; assay type: functional; conditions: A549, 24 h
[7] = system: HepG2; test: Antiproliferative activity against human HepG2 cells at 10 uM after 24 hrs by MTS assay relative to control; assay type: functional; conditions: HepG2, 24 h
[8] = system: MCF7; test: Antiproliferative activity against human MCF7 cells at 10 uM after 24 hrs by MTS assay relative to control; assay type: functional; conditions: MCF7, 24 h
[9] = target: T1, Tyrosine-protein phosphatase non-receptor type 1 (Homo sapiens); test: (§1) Inhibition of recombinant human PTP1B using pNPP as substrate after 30 mins
[10] = target: T3, Tyrosine-protein phosphatase non-receptor type 1 (Homo sapiens, UniProt P18031); test: as §1
T3 sequence (P18031 whole entry): T1 sequence (whole entry)

| Structure (SMILES) | inhibition [2] | inhibition [5] | inhibition [9] | IC50 [10] | inhibition at 10 µM [1] | inhibition at 10 µM [3] | inhibition [4] | inhibition at 10 µM [6] | inhibition at 10 µM [7] | inhibition at 10 µM [8] |
| --- | --- | --- | --- | --- | --- | --- | --- | --- | --- | --- |
| CC(C)=CCc1cc([C@@H]2CC(=O)c3ccc(O)c(CC=C(C)C)c3O2)ccc1O [GLABROL] | 65.1% | 2.3% | Dose-dependent effect | 5 to 7.9 µM | 14.7% | 13.6% | 28.2% | 3.2% | 51.3% | 48% |
| CC(C)=CCc1cc(/C=C/C(=O)c2ccc(O)c(CC=C(C)C)c2O)ccc1O [KANZONOL C] | 75.8% | 0% | Dose-dependent effect | 5 to 7.9 µM | 12.8% | 35.6% | 0% | 58% | 31.7% | 55.8% |
| CC(C)=CCc1c(O)ccc([C@@H]2COc3c(ccc4c3C=CC(C)(C)O4)C2)c1O [HISPAGLABRIDIN A] | 80.3% | 0% | Dose-dependent effect | 5 to 7.9 µM | 4% | 34.9% | 13.3% | 47.6% | 26.7% | 21.9% |
| CC1(C)C=Cc2c(ccc3c2OC[C@H]2c4ccc(O)cc4O[C@@H]32)O1 [SHINPTEROCARPIN] | 13.3% | 11.2% | – | – | 4.1% | 0% | 0% | 2.2% | 65% | 14.4% |
| CC1(C)C=Cc2c(ccc(-c3coc4cc(O)ccc4c3=O)c2O)O1 [GLABRONE] | 0.3% | 9.7% | – | – | 42% | 45.4% | 6.4% | 0% | 29.2% | 36.1% |
| CC(C)=CCc1cc([C@@H]2CC(=O)c3ccc(O)cc3O2)ccc1O [ABYSSINONE II] | 4.2% | 7.8% | – | – | 10.5% | 0% | 56.6% | 0% | 44.2% | 42.3% |
| COc1ccc([C@@H]2COc3c(ccc4c3C=CC(C)(C)O4)C2)c(O)c1 | 14.6% | 2.2% | – | – | 8.5% | 16.1% | 4.1% | 35.9% | 54.2% | 5.3% |
| COc1ccc([C@@H]2COc3c(ccc(O)c3CC=C(C)C)C2)c(O)c1O | 80% | 20.1% | – | – | 33% | 0.2% | 8.4% | 15.5% | 38% | 30.4% |
| CC(C)=CCc1c(O)cc(O)c2c(=O)c(-c3ccc(O)cc3O)coc12 | 18.2% | 49.6% | – | – | 10.3% | 4.2% | 0% | 4.2% | 0% | 7.4% |
| CC1(C)C=Cc2cc3c(cc2O1)OCC(c1ccc(O)c2c1OC(C)(C)C=C2)=C3 | 95.3% | 1.3% | – | – | 2.6% | 24.3% | 0% | 0.7% | 0% | 26.6% |
| CC1(C)C=Cc2c(ccc3c2OCC(c2ccc(O)cc2O)=C3)O1 | 6.1% | 50.9% | – | – | 21.4% | 0% | 13.7% | 2.1% | 0% | 1.9% |
| COc1ccc(-c2coc3cc(O)ccc3c2=O)cc1 [FORMONONETIN] | 9.9% | 4.3% | – | – | 0% | 0% | 0% | 15.4% | 8.2% | 51.8% |

More lines, main results first:

| inhibition [2] | inhibition [5] | inhibition [9] | IC50 [10] | Structure (SMILES) | inhibition at 10 µM [1] | inhibition at 10 µM [3] | inhibition [4] | inhibition at 10 µM [6] | inhibition at 10 µM [7] | inhibition at 10 µM [8] |
| --- | --- | --- | --- | --- | --- | --- | --- | --- | --- | --- |
| 84.5% | 0% | Dose-dependent effect | 5 to 7.9 µM | CC(C)=CCc1cc(/C=C/C(=O)c2ccc3c(c2O)C=CC(C)(C)O3)ccc1O | 7.2% | 4.9% | 3.4% | 2% | 10.6% | 15.6% |
| 14.2% | 15.3% | – | – | O=C(/C=C/c1ccc(O)cc1)c1ccc(O)cc1O [ISOLIQUIRITIGENIN] | 21% | 29.1% | 17.1% | 8.3% | 6.5% | 65.6% |
| 58.5% | 35.6% | – | – | CC1(C)C=Cc2c(cc(O)c3c2OCC(c2ccc(O)cc2O)C3=O)O1 (configuration not stated) | 1.9% | 29.6% | 0.1% | 4.3% | 37.6% | 12.7% |
| 10.6% | 8.1% | – | – | CC(C)=CCc1cc([C@H]2Oc3c(ccc4c3C=CC(C)(C)O4)C(=O)[C@@H]2O)ccc1O | 0.3% | 9.2% | 40.3% | 21.2% | 42.9% | 13.5% |
| 0.2% | 10.3% | – | – | CC(C)=CCc1cc(C[C@@H](O)C(=O)c2ccc(O)cc2O)ccc1O | 7.1% | 4.2% | 23% | 6.1% | 7.2% | 29.5% |
| 12.8% | 2.4% | – | – | CC1(C)C=Cc2c(ccc3c(=O)c(Oc4ccc(O)cc4O)coc23)O1 | 6.3% | 7.1% | 18.1% | 0% | 29.9% | 2.6% |
| 4.9% | 0% | – | – | COc1ccc2c(c1)O[C@H]1c3ccc(O)c(CC=C(C)C)c3OC[C@@H]21 [LICOAGROCARPIN] | 16.7% | 18.2% | 0% | 37.3% | 8.3% | 52.9% |
| 5.5% | 12.9% | – | – | CC(C)=CCc1c(O)ccc2c1OC[C@@H](c1ccc3c(c1O)C=CC(C)(C)O3)C2 | 3.6% | 20.2% | 40.2% | 10.2% | 15.9% | 60.9% |
| 16% | 18.4% | – | – | CC(C)=CCc1c(O)ccc(C(=O)/C=C/c2ccc(O)cc2)c1O [ISOBAVACHALCONE] | 7.5% | 46.7% | 13.2% | 3.5% | 27.3% | 15.6% |
| 15.7% | 7.9% | – | – | CC(C)=CCc1c(O)ccc([C@@H]2COc3c(ccc(O)c3CC=C(C)C)C2)c1O [KANZONOL X] | 15.7% | 74.4% | 32.9% | 81.6% | 14.9% | 95.9% |
| 6% | 1% | – | – | CC1(C)C=Cc2c(ccc3c(=O)c(-c4ccc(O)cc4O)coc23)O1 | 12.1% | 0% | 1.5% | 4.9% | 30% | 42.1% |
